One data set addresses HIV protease (Human immunodeficiency virus type 1 group M subtype B, UniProt P04585). Kind of data set: Enzymatic (FRET fluorometric) assay for determining the inhibition constant (Ki) of compounds targeting the HIV protease. The conditions noted are these: Ki, FRET substrate (EDANS/DABCYL), equation of Henderson. In kind it is biochemical. The text has this:
Enzymatic Assay for Determining the Inhibition Constant (Ki) of Synthetic Compounds Targeting the HIV Protease
This is a fluorometric assay based on the cleavage by protease of a substrate carrying a donor group (EDANS) and an acceptor group (DABCYL) on each side of the cleavage site, interacting together through fluorescence resonance energy transfer (FRET) as described by Matayoshi et al. (Science 247:[…], 1990).
After calculation of Vo and Vi, the inhibition constant (Ki) of the compound is determined using the equation of Henderson: [formula]
where Vo=the enzyme's initial velocity
Vi=the enzyme velocity in the presence of the inhibitory compound,
[I]=inhibitor concentration, [S]=substrate concentration,
Km=Michaelis-Menten constant and Kiapp=apparent Ki
Graphs are traced and the Ki determined using GraphPad Prism software v. 3.0.

The nature of a further data set: in vitro. In kind it is cell-based. The conditions noted are these: human. As for the experimental part: To evaluate the EC50 of our compounds, various drug concentrations are incubated with the infected cell for six days and then the metabolic activity of the cells is monitored by the MTT assay. (See A. J. Japour et al, Antimicrobial Agents and Chemotherapy, 37, 1095-1101, 1993 and R. Pauwels et al. Journal of Virological Methods, 20, 309-321, 1988).
We use the laboratory viral strain NL4.3 as wild type virus and the cell line used is MT-4 which is a T-cell line highly sensitive to HIV-1. We also use some WT clinical strains. To address the resistance issue we assay the inhibitors with NL4.3 mutants which are designed to be resistant to specific commercially available inhibitors.
The same MTT assay is used to evaluate the CCIC50 (cell culture IC50) of our compounds except that the virus is omitted.

With `Cc1ccc(S(=O)(=O)N(CC(C)C)[C@H](CO)CCCCNC(=O)N(Cc2ccccc2)Cc2ccccc2[N+](=O)[O-])cc1` [Example 59, (2S) 2-N-Isobutyl-2-N-(4-methylbenzenesulfonyl)-6-N-[N′-benzyl-N′-(2-nitrobenzyl)aminocarbonyl]-2,6-diaminohexanol], the inhibition constant Ki on HIV protease worked out at 0.0017 µM. This compound also came in with an IC50 at 6 days in the data set “in vitro” of 4.6 µM.
The compound `Cc1ccc(S(=O)(=O)N(CC(C)C)[C@H](CO)CCCCNC(=O)N(Cc2ccccc2)Cc2cccc([N+](=O)[O-])c2)cc1` [Example 60, (2S) 2-N-Isobutyl-2-N-(4-methylbenzenesulfonyl)-6-N-[N′-benzyl-N′-(3-nitrobenzyl)aminocarbonyl]-2,6-diaminohexanol] had an inhibition constant Ki at HIV protease of 0.006 µM. The compound also displayed an IC50 at 6 days in “in vitro” of 4.6 µM.
The matching figures for `Cc1ccc(S(=O)(=O)N(CC(C)C)[C@H](CO)CCCCNC(=O)N(Cc2ccccc2)Cc2ccc([N+](=O)[O-])cc2)cc1` [Example 61, (2S) 2-N-Isobutyl-2-N-(4-methylbenzenesulfonyl)-6-N-[N′-benzyl-N′-(4-nitrobenzyl)aminocarbonyl]-2,6-diaminohexanol]: 0.009 µM and 5.1 µM.
The matching figures for `CC(C)CN([C@H](CO)CCCCNC(=O)N(Cc1ccc(F)cc1)Cc1ccc2c(c1)OCO2)S(=O)(=O)c1ccc(N)cc1` [Example 67, (2S) 2-N-(4-Aminobenzenesulfonyl)-2-N-isobutyl-6-N-[N′-(4-fluorobenzyl)-N′-piperonylaminocarbonyl]-2,6-diaminohexanol]: 0.002 µM and 11 µM.
With `CC(C)CN([C@H](CO)CCCCNC(=O)N(Cc1ccccc1)Cc1ccc2c(c1)OCO2)S(=O)(=O)c1ccc(N)cc1` [Example 82, (2S) 2-N-(4-Aminobenzenesulfonyl)-2-N-isobutyl-6-N-(N′-benzyl-N′-piperonylaminocarbonyl)-2,6-diaminohexanol], affinity at HIV protease was put at a Ki of 0.0026 µM. For the same compound, it took 12.5 µM to reach half-maximal inhibition in the data set “in vitro” (IC50 at 6 days).
Take `CC(C)CN([C@H](CO)CCCCNC(=O)N(Cc1ccc2c(c1)OCO2)Cc1ccc2c(c1)OCO2)S(=O)(=O)c1ccc(N)cc1` [Example 85, (2S) 2-N-(4-Aminobenzenesulfonyl)-2-N-isobutyl-6-N-(N′,N′-dipiperonylaminocarbonyl)-2,6-diaminohexanol]: the Ki at HIV protease stood at 0.0017 µM. The compound also showed an IC50 at 6 days in the data set “in vitro” of 13.1 µM.
Consider `CC(C)CCN([C@H](CO)CCCCNC(=O)N(Cc1ccncc1)Cc1ccc2c(c1)OCO2)S(=O)(=O)c1ccc(N)cc1` [Example 95, (2S) 2-N-(4-Aminobenzenesulfonyl)-2-N-(3-methylbutyl)-6-N-[N′-(4-picolyl)-N′-piperonylaminocarbonyl]-2,6-diaminohexanol], for which, in the data set “in vitro”, the half-maximal inhibitory concentration (IC50) at 6 days came out at 28.8 µM.
In the data set “in vitro”, `CC(C)CCN([C@H](CO)CCCCNC(=O)N(Cc1ccc(F)cc1)Cc1ccc2c(c1)OCO2)S(=O)(=O)c1ccc(N)cc1` [Example 102, (2S) 2-N-(4-Aminobenzenesulfonyl)-2-N-(3-methylbutyl)-6-N-[N′-(4-fluorobenzyl)-N′-piperonylaminocarbonyl]-2,6-diaminohexanol] registered an IC50 at 6 days of 24.4 µM.
Same read-out and setting: the same measure for `COc1cc(CN(Cc2ccc3c(c2)OCO3)C(=S)NCCCC[C@@H](CO)N(CCC(C)C)S(=O)(=O)c2ccc(N)cc2)cc(OC)c1OC` [Example 107, (2S) 2-N-(4-Aminobenzenesulfonyl)-2-N-(3-methylbutyl)-6-N-[N′-(3,4,5-trimethoxybenzyl)-N′-piperonylaminothiocarbonyl]-2,6-diaminohexanol]: 10.7 µM.

The record behind these values is patent publication US6528532B1, “Urea derivatives as HIV aspartyl protease inhibitors” (Pharmacor Inc., priority 2002, dated 2003).
